Results from PubChem BioAssay (NCI).
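Protocol summary: plate cells (96-well), add compound at 5 concentrations, incubate 48 h, interpolate endpoints linearly. Definition used: TGI = concentration required for complete inhibition of growth.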

Tests used:
Experiment in all cases: inhibition of tumour cell growth, NCI panel, 48 h
[1] = system: A549 NSCLC
[2] = system: CAKI-1 renal
[3] = system: CCRF-CEM leukemia
[4] = system: COLO 205 colon
[5] = system: DMS 114 small cell lung
[6] = system: DMS 273 small cell lung
[7] = system: EKVX NSCLC
[8] = system: HCT-15 colon
[9] = system: HL-60(TB) leukemia
[10] = system: HT29 colon
[11] = system: IGROV1 ovarian
[12] = system: K-562 leukemia
[13] = system: KM12 colon
[14] = system: LOX IMVI melanoma
[15] = system: M14 melanoma
[16] = system: M19-MEL melanoma
[17] = system: MOLT-4 leukemia
[18] = system: NCI-H226 lung
[19] = system: NCI-H23 lung
[20] = system: NCI-H522 lung
[21] = system: OVCAR-3 ovarian
[22] = system: OVCAR-8 ovarian
[23] = system: RPMI-8226 leukemia
[24] = system: RXF 393 renal
[25] = system: SF-268 CNS
[26] = system: SF-295 CNS
[27] = system: SF-539 CNS
[28] = system: SK-MEL-28 melanoma
[29] = system: SK-MEL-5 melanoma
[30] = system: SK-OV-3 ovarian
[31] = system: SN12C renal
[32] = system: SNB-19 CNS
[33] = system: SNB-75 CNS
[34] = system: SW-620 colon
[35] = system: TK-10 renal
[36] = system: UACC-257 melanoma
[37] = system: UACC-62 melanoma
[38] = system: UO-31 renal
[39] = system: XF 498 CNS

Measured: TGI

Nc1ccc([C@H]2C(=O)N[C@H]3CCC[C@H]32)cc1
> 100 µM: all assays above
